How the values were obtained:
[1] = Accelerated degradation of cellulosic composites buried in soil; type: physicochemical; details: buried in soil 1 month, 30° C., approximately 50% humidity; confidence interval 95%
Experimental: Cellulosic pulp was mixed with various materials to study the influence of the materials in the degradation of them in soil. To evaluate the different materials developed with cellulose, an accelerated degradation protocol was developed wherein samples with different compositions were buried in a recipient containing soil, and kept for 1 month in an incubator at 30° C. and approximately 50% humidity, representing field conditions. The cellulose content was measured using thermogravimetric analyses before and after the test to evaluate degradation, indicating cellulose degradation in field.
Different materials were tested, including a residue from the pulp and paper industry containing cellulosic fibers of long and short nature; inorganic fillers, mainly TiO2 and pigments. The final structure contained more than 90% of this cellulose mixture. To this mixture was added polyvinyl alcohol, up to 5% in weight, ionomer of ethylene acid copolymer, up to 5% in weight, used in the packaging industry, cationic starch, up to 5% in weight, more likely 1% to accelerate degradation, while promoting the adherence of the adjacent fibers of cellulose, urea to accelerate the degradation and nutrition of plants up to 10% in weight, more likely 5%, and AKD (alkyl ketene dimer) in a starch solution to serve as moisture barrier by changing the hydrophobicity of cellulose, more likely between 1-10 ppm.

[2] = tested on: regenerable plant tissue (RPT); test: Culturing of regenerable plant tissue in media with BAP; type: cell-based, sugarcane; details: BAP present in the culture
Text: General procedures have been previously outlined (International Publication No. WO 2013/096531, incorporated by reference herein). In summary, half-explants were trimmed of excess stalk tissue, leaving behind the proliferating buds areas. Trimmed tissue was placed into a temporary immersion chamber for liquid culture, or back onto solid media. In the case of temporary immersion, the chamber was placed in a growth chamber, or room, with 30 uE/m2/sec of PAR light, and was hooked to tubing connected to pumps to allow standard immersion cycling. Media (MS+3% sucrose+[…]+3 mg/L paclobutrazol) was changed weekly. Harvest occurred 2-20 weeks after initiation, depending on whether the tissue is grown on solid or liquid media, and the overall mass of the regenerable plant tissue (RPT).
The RPT was subdivided into additional growth chambers or plates as needed. Multiple rounds of growth cycles were possible.

sugarcane = test: Plantlet formation with Na silicate added to MS media; field test; type: in vivo; details: 5 mM added to MS media in weeks 3 and 4; observational evidence
Experimental: Plantlet formation (production of plants with shoots and roots), also called regeneration, was initiated by transferring the RPT to media without hormones. RPT fragments were made using scalpels, chopping tools, or by large scale dicing of material by mechanical means. Fragment size was determined by end usage: RPT fragments for growth in arrays were approximately 1-10 mm cubes, for growth in temporary immersion chambers somewhat larger fragments 5-20 mm were used, or the RPT was left unfragmented. The media used was MS+3% sucrose. Plantlet formation occurred at 26° C. in 60 uE/m2/sec of PAR light (16 hours on and 8 hours off), and if temporary immersion was used media was cycled over the fragments for 1 minute every 2 hours. Media was replaced weekly and was supplemented with 100 ppm carbenicillin, 0.2% PPM (Plant Preservative Mixture™, Plant Cell Technology Inc. Washington, D.C.), and/or 100 ppm cefotaxime as needed. Supplemental carbon dioxide (1500 ppm) was used in some growth cycles, but is not essential. After 3-4 weeks the MS concentration was decreased to ½ strength to encourage rooting, although not required.
The addition of 5 mM Na silicate to the MS media was made in weeks 3 and 4. […] Silicates accumulated in sugarcane tissues conferring anti-predatory, anti-fungal properties. […]

sugarcane plantlet = test: Storage of plantlets in Starcla tube seed structures after chemical treatment during regeneration; field survival; type: in vivo; details: for Survival: survival after 5 weeks of growth in field
Text: The effect of time, temperature, and light on storage of plantlets was studied, in combination with the effect of chemical treatment. Seed structures consisted of 4″ Starcla™ tubes. Tubes were extruded from a resin, such as a blend of polybutylene succinate, polylactic acid, and starch, using a 1½″ Davis Standard-extruder. Tubing was made with ⅝″ I.D. and cut into 4″ length tubes. The seeds were assembled by heating the bottom of the tube and pressing into a crescent shape where there is 2-3 millimeter gap between both sides. Two grams of potting media were added to each tube. One sugarcane plantlet was placed inside the tube structure ensuring the roots were placed in the soil and the shoot remained in the airspace. Two milliliters of water were added to the structure and then the top was prepared by heating and forming a crescent shape with a 2-3 millimeter gap between both sides.
Two types of chemical treatments were used during regeneration. The first treatment was paclobutrazol (paclo), which was introduced into the media for weeks 3 and 4 of plantlet formation. The solution contained 2% sucrose, ½ strength MS, 100 ppm cefotaxime, and 0.75 mg/L paclobutrazol. The second treatment was abscisic acid (ABA) which was introduced the day before the plantlets were removed from regeneration. The ABA treatment solution contained 1 mg/L ABA, 10 g/L sucrose, and MS solution.
The tubes were stored in partially closed zip bags with 25 tubes per unit. After storage the seeds were planted. No irrigation was used during the time the plantlets were growing in the field. The survival rates of the plantlets were measured after 5 weeks of growth.

[3] = Conditions N, O: 0 weeks, not stored

With `NC(N)=O` [urea] the “Influence on the degradation of cellulosic compounds” value [1] was “high influence”.
With `c1ccc(CNc2ncnc3nc[nH]c23)cc1` [BAP, 6-Benzylaminopurine] the Root formation [2] was “No root formation is detected”.
In the case of Na silicate, the “Growth rate and root production in a field test” value (sugarcane) is reported as “improves growth rate and root production”.
`CC1=CC(=O)CC(C)(C)[C@@]1(O)/C=C/C(C)=C\C(=O)O` [ABA, abscisic acid] showed a Survival (sugarcane plantlet; Condition C: storage 8 weeks, temperature 10, light 5) of 0%, a Survival (sugarcane plantlet; Condition D: storage 8 weeks, temperature 30, light 0) of 0% and a Survival (sugarcane plantlet; Condition G: storage 4 weeks, temperature 10, light 0) of 0%. The Survival (sugarcane plantlet; Condition H: storage 4 weeks, temperature 30, light 200) was 50%, the Survival (sugarcane plantlet; Condition L: storage 2 weeks, temperature 10, light 5) was 0% and the Survival (sugarcane plantlet; Condition M: storage 2 weeks, temperature 30, light 0) was 0%. For the same compound, the Survival (sugarcane plantlet; [3]) was 12%.
Compound `CC(C)(C)[C@@H](O)[C@@H](Cc1ccc(Cl)cc1)n1cncn1` (racemic) [Paclo, paclobutrazol] has a Survival (sugarcane plantlet; Condition A: storage 8 weeks, temperature 10, light 0) of 0%, a Survival (sugarcane plantlet; Condition B: storage 8 weeks, temperature 30, light 200) of 88% and a Survival (sugarcane plantlet; Condition E: storage 4 weeks, temperature 10, light 5) of 0%. For the same compound, the Survival (sugarcane plantlet; Condition F: storage 4 weeks, temperature 30, light 0) was 0%, the Survival (sugarcane plantlet; Condition J: storage 2 weeks, temperature 10, light 0) was 0% and the Survival (sugarcane plantlet; Condition K: storage 2 weeks, temperature 30, light 200) was 64%. The Survival (sugarcane plantlet; [3]) was 16% and the “Survival rate compared between treatments” value (sugarcane plantlet; storage experiment of Table 3 overall) was “higher survival rate than the ABA treatment”.

Source: US20170042104A1, “SUGARCANE PROCESS” (E I DU PONT DE NEMOURS AND COMPANY, priority 2014, published 2017)
